Data: patent EP0903346A1, “SYDNONE IMINE DERIVATIVES” (Chugai Seiyaku Kabushiki Kaisha, priority 1995, dated 1997)

System: anesthetized rat
Test: Blood pressure-lowering effect in anesthetized rat
Assay type: in vivo
Conditions: duodenal administration; dose causing a decrease in the blood pressure by 30%
Procedure: Male Sprague Dawley rats weighing 280 to 450 g were anesthetized with sodium pentobarbital (50 mg/kg, i.p.) and fixed in the supine position. A canula was inserted into the trachea of each animal. Then the blood pressure of the animal was measured (AP-621G, Nippon Kohden Corp.) through a polyethylene tube (PE50) inserted into the right femoral artery via a pressure transducer (Life Kit DTS, DX-300, Nippon Kohden Corp.) and the heart rate was determined from the pulse wave (AT-610G, Nippon Kohden Corp.). A canula (PE10) for injecting the maintenance anesthetic drug (sodium pentobarbital 20 mg/kg/h) was inserted into the right femoral vein. The abdominal region was medianly sectioned and a canula (PE50 connected to a injection needle 23G) for duodenal drug administration was inserted thereinto and fixed with Aronalpha for surgical use. After 60-90 minutes of recovery period, the drug was administered into duodenum. After administering the drug, the blood pressure was measured until the average blood pressure returned to the level before the administration.
As the indication of the blood pressure-lowering effect of each drug, the dose causing a decrease in the blood pressure by 30%, based on the level before the administration, was calculated from the dose-response curve and employed as the 30% effective dose (ED30). Moreover, the time required for the recovery to the level corresponding to 50% of the maximum decrease in the blood pressure (half duration) was measured at each dose. Then the half duration at the above-mentioned ED30 was calculated and employed as the indication of the lasting time of the blood pressure-lowering effect (half duration at ED30).
As the test compounds, use was made of the compounds of the present invention obtained in the above Examples. Table C summarizes the results. Table C

| Compound | Blood pressure-lowering effect ED30 |
| --- | --- |
| CC(=O)N[C@@H](CSC(=O)c1ccc(F)cc1)C(=O)[N-]c1c[n+](N2CCN(C)CC2)no1 [Example 185, N-((R)-2-Acetylamino-3-(4-fluorobenzoylthio)propionyl)-3-(4-methylpiperazin-1-yl)sydnonimine] | 1.5 mg/kg |

Same assay, conditions: duodenal administration; half duration at ED30 (recovery to 50% of the maximum decrease in blood pressure)

| Compound | Blood pressure-lowering effect Half duration |
| --- | --- |
| CC(=O)N[C@@H](CSC(=O)c1ccc(F)cc1)C(=O)[N-]c1c[n+](N2CCN(C)CC2)no1 [Example 185, N-((R)-2-Acetylamino-3-(4-fluorobenzoylthio)propionyl)-3-(4-methylpiperazin-1-yl)sydnonimine] | 53 min |

System: isolated rat aorta
Test: Test with the use of isolated rat aorta (relaxation of potassium chloride contraction)
Conditions: read-out: Rat aorta IC50
Procedure: The thoracic aorta was taken out from male Sprague Dawley rats weighing 450 to 600 g and cut into circular samples of 2 mm in width. […] The contraction reactions of the samples were isometrically recorded with FD pick-up. After 1 to 1.5 hours of equilibration, 30 mM potassium chloride was added to contract the tissue. […] As the test compounds, the invention compounds obtained in the above Examples were employed.

| Compound | IC50 |
| --- | --- |
| COc1cc(CC(=O)N2CCN([n+]3cc([N-]C(=O)CSC(C)=O)on3)CC2)cc(OC)c1OC [Example 40, N-((Acetylthio)acetyl)-3-(4-((3,4,5-trimethoxyphenyl)acetyl)piperazin-1-yl)sydnonimine] | 280 nM |

Same assay, conditions: relaxation of continuous contraction due to 30 mM potassium chloride, thoracic aorta of male Sprague Dawley rats, read-out: Rat aorta IC50

| Compound | IC50 |
| --- | --- |
| CC(=O)SC[C@@H](C)C(=O)[N-]c1c[n+](N2CCN(C(=O)CSc3cc(C(C)(C)C)c(O)c(C(C)(C)C)c3)CC2)no1 [Example 24-D] | 470 nM |
| COc1cc(CN2CCN([n+]3cc([N-]C(=O)CSC(C)=O)on3)CC2)cc(OC)c1OC [Example 48, N-((Acetylthio)acetyl)-3-(4-(3,4,5-trimethoxyphenylmethyl)piperazin-1-yl)sydnonimine] | 110 nM |
| CC(=O)SCC(=O)N1CCN([n+]2cc([N-]C(=O)CSC(=O)c3ccccc3)on2)CC1 [Example 30-D, 3-(4-(Acetylthio)acetyl)piperazin-1-yl)-N-((benzoylthio)acetylsydnonimine] | 120 nM |
| CC(=O)SCC(=O)[N-]c1c[n+](N2CCN(C(=O)CSC(C)=O)CC2)no1 [Example 38-C, N-((Acetylthio)acetyl)-3-(4-((acetylthio)acetyl)piperazin-1-yl)sydnonimine] | 230 nM |
| COc1ccccc1N1CCN([n+]2cc([N-]C(=O)[C@H](C)CSC(=O)c3ccccc3)on2)CC1 [Example 11, N-((S)-3-(Benzoylthio)isobutyryl)-3-(4-(2-methoxyphenyl)piperazin-1-yl)sydnonimine] | 160 nM |
| CC(=O)SC[C@@H](C)C(=O)[N-]c1c[n+](N2CCN(C(=O)[C@H](C)CSC(=O)c3ccccc3)CC2)no1 [Example 29, N-((S)-3-(Acetylthio)isobutyryl)-3-(4-((S)-3-(benzoylthio)isobutyryl)piperazin-1-yl)sydnonimine] | 630 nM |
| COc1ccc(CN2CCN([n+]3cc([N-]C(=O)CSC(=O)c4ccccc4)on3)CC2)c(OC)c1OC [Example 51, N-((Benzoylthio)acetyl)-3-(4-(2,3,4-trimethoxyphenylmethyl)piperazin-1-yl)sydnonimine] | 300 nM |
| COc1cc(CCN(C)[n+]2cc([N-]C(=O)[C@H](C)CSC(=O)c3ccccc3)on2)cc(OC)c1OC [Example 64, N-((S)-3-(Benzoylthio)isobutyryl)-3-(N'-(2-(3,4,5-trimethoxyphenyl)ethyl)-N'-methylamino)sydnonimine] | 910 nM |
| CC(=O)SC[C@@H](C)C(=O)[N-]c1c[n+](N2CCOCC2)no1 [Example 67, N-((S)-3-(Acetylthio)isobutyryl)-3-morpholinosydnonimine] | 540 nM |
| COc1cc(CCN2CCN([n+]3cc([N-]C(=O)[C@H](C)CSC(=O)c4ccccc4)on3)CC2)cc(OC)c1OC [Example 45, N-((S)-3-(Benzoylthio)isobutyryl)-3-(4-(2-(3,4,5-trimethoxyphenyl)ethyl)piperazin-1-yl)sydnonimine] | 780 nM |
| C[C@H](CSC(=O)c1ccccc1)C(=O)[N-]c1c[n+](N(C)C)no1 [Example 5, N-((S)-3-(Benzoylthio)isobutyryl)-3-dimethylaminosydnonimine] | 570 nM |
| CC(C)(C)c1cc(SCC(=O)N2CCN([n+]3cc([N-]C(=O)CSC(=O)c4ccccc4)on3)CC2)cc(C(C)(C)C)c1O [Example 33, N-((Benzoylthio)acetyl)-3-(4-(3,5-di-t-butyl-4-hydroxyphenylthio)acetylpiperazin-1-yl)sydnonimine] | 180 nM |
| C[C@H](CSC(=O)c1ccccc1)C(=O)[N-]c1c[n+](N2CCN(CCSC(=O)c3ccccc3)CC2)no1 [Example 52-B, N-((S)-3-(Benzoylthio)isobutyryl)-3-(4-(2-(benzoylthio)ethyl)piperazin-1-yl)sydnonimine] | 420 nM |
| C[C@H](CSC(=O)c1ccccc1)C(=O)[N-]c1c[n+](N2CCOCC2)no1 [Example 4, N-((S)-3-(Benzoylthio)isobutyryl)-3-morpholinosydnonimine] | 23 nM |
| COc1cc(CC(=O)N2CCN([n+]3cc([N-]C(=O)[C@H](C)CSC(C)=O)on3)CC2)cc(OC)c1OC [Example 25] | 630 nM |
| O=C(CSC(=O)c1ccccc1)[N-]c1c[n+](N2CCN(C(=O)CSC(=O)c3ccccc3)CC2)no1 [Example 31] | 36 nM |
| COc1cc(CN2CCN([n+]3cc([N-]C(=O)CSC(=O)c4ccccc4)on3)CC2)cc(OC)c1OC [Example 49, N-((Benzoylthio)acetyl)-3-(4-(3,4,5-trimethoxyphenylmethyl)piperazin-1-yl)sydnonimine] | 46 nM |
| CC1CCCC(C)N1[n+]1cc([N-]C(=O)CSc2cc(C(C)(C)C)c(O)c(C(C)(C)C)c2)on1 (centres unmarked) [Example 13, N-((3,5-Di-t-butyl-4-hydroxyphenylthio)acetyl)-3-(2,6-dimethylpiperidin-1-yl)sydnonimine] | 550 nM |
| COc1ccc(CN2CCN([n+]3cc([N-]C(=O)CSc4cc(C(C)(C)C)c(O)c(C(C)(C)C)c4)on3)CC2)cc1OC [Example 47, N-((3,5-Di-t-butyl-4-hydroxyphenylthio)acetyl)-3-(4-(3,4-dimethoxyphenylmethyl)piperazin-1-yl)sydnonimine] | 940 nM |
| CC1CCCC(C)N1[n+]1cc([N-]C(=O)CSC(=O)c2ccccc2)on1 (centres unmarked) [Example 16, N-((Benzoylthio)acetyl)-3-(2,6-dimethylpiperidin-1-yl)sydnonimine] | 56 nM |
| COc1ccc(CN2CCN([n+]3cc([N-]C(=O)CSC(C)=O)on3)CC2)c(OC)c1OC [Example 50, N-((Acetylthio)acetyl)-3-(4-(2,3,4-trimethoxyphenylmethyl)piperazin-1-yl)sydnonimine] | 140 nM |
| COc1cc(CC(=O)N2CCN([n+]3cc([N-]C(=O)CSC(=O)c4ccccc4)on3)CC2)cc(OC)c1OC [Example 32] | 45 nM |
| CC(=O)SC[C@@H](C)C(=O)[N-]c1c[n+](N2CCN(C(=O)[C@@H]3CSC(=O)N3)CC2)no1 [Example 28, N-((S)-3-(Acetylthio)isobutyryl)-3-(4-((R)-2-oxo-4-thiazolidinecarbonyl)piperazin-1-yl)sydnonimine] | 710 nM |
